Reference: publication PMC4082028 (Biochemistry, 2013)

Target: Aβ40 (amyloid β-protein, monomer) (Homo sapiens, UniProt P05067)
Assay: […]-1H HSQC NMR titration
Format: binding

Sequence of Aβ40 (amyloid β-protein, monomer) (P05067 672-711 limits assumed): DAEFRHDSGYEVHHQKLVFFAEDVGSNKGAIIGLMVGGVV

COc1ccc(/C=C/C(=O)Nc2ccccc2C(=O)O)cc1OC [tranilast, N-[3,4-Dimethoxycinnamoyl]-anthranilic acid]
Kd: 310 ± 130 µM
